Test results reported in the CheMixHub viscosity set.
Several values for one entry are separate records, joined by “and”; a condition that tells them apart may be missing. Equal entries are not always repeated. ± gives the uncertainty stated by the source.

Key:
[1] = xn = mol fraction of the nth substance listed

Work on `CCCCCCn1cc[n+](C)c1.[Cl][Fe-]([Cl])([Cl])[Cl]` yielded a viscosity (293.15 K, 101 kPa) of 73.92 ± 3.2 mPa·s, a viscosity (298.15 K, 101 kPa) of 58.96 ± 2.5 mPa·s and a viscosity (303.15 K, 101 kPa) of 47.89 ± 2 mPa·s. The viscosity (308.15 K, 101 kPa) was 39.56 ± 1.7 mPa·s, the viscosity (313.15 K, 101 kPa) was 33.07 ± 1.4 mPa·s and the viscosity (318.15 K, 101 kPa) was 28.06 ± 1.2 mPa·s. The viscosity (323.15 K, 101 kPa) was 24.02 ± 1 mPa·s.

Compound `CN(C)CCN(C)C` has a viscosity (293.15 K, 100 kPa) of 0.615 ± 0.06 mPa·s, a viscosity (303.15 K, 100 kPa) of 0.557 ± 0.06 mPa·s and a viscosity (313.15 K, 100 kPa) of 0.493 ± 0.06 mPa·s. The viscosity (323.15 K, 100 kPa) was 0.439 ± 0.06 mPa·s.

Work on `c1ccncc1` yielded a viscosity (293.15 K, 100 kPa) of 0.9801 ± 0.012 mPa·s, a viscosity (298 K, 101.3 kPa) of 0.882 ± 0.012 mPa·s and a viscosity (298.15 K, 100 kPa) of 0.9155 ± 0.011 mPa·s. For the same compound, the viscosity (298.15 K, 101.3 kPa) was 0.903 ± 0.024 mPa·s, the viscosity (298.25 K, 101.33 kPa) was 0.88 ± 0.044 mPa·s and the viscosity (303.15 K, 100 kPa) was 0.8568 ± 0.011 mPa·s. For the same compound, the viscosity (303.15 K, 101.33 kPa) was 0.828 ± 0.022 mPa·s, the viscosity (308.15 K, 100 kPa) was 0.8032 ± 0.01 mPa·s and the viscosity (308.15 K, 101 kPa) was 0.76 ± 0.02 mPa·s and 0.7914 ± 0.0073 mPa·s. It also gave a viscosity (308.15 K, 101.3 kPa) of 0.75 ± 0.02 mPa·s, a viscosity (308.15 K, 101.33 kPa) of 0.78 ± 0.009 mPa·s and a viscosity (313.15 K, 100 kPa) of 0.7546 ± 0.0096 mPa·s. For the same compound, the viscosity (313.15 K, 101 kPa) was 0.714 ± 0.007 mPa·s (2×) and 0.724 ± 0.013 mPa·s, the viscosity (313.15 K, 101.33 kPa) was 0.8 ± 0.04 mPa·s and the viscosity (318.15 K, 100 kPa) was 0.7103 ± 0.0092 mPa·s. The viscosity (318.15 K, 101 kPa) was 0.6939 ± 0.0067 mPa·s, the viscosity (318.15 K, 101.3 kPa) was 0.675 ± 0.018 mPa·s and the viscosity (318.15 K, 101.33 kPa) was 0.66 ± 0.008 mPa·s. The viscosity (323.15 K, 100 kPa) was 0.6698 ± 0.0088 mPa·s and the viscosity (323.15 K, 101 kPa) was 0.645 ± 0.0097 mPa·s and 0.6248 ± 0.017 mPa·s.

In the case of `CCCCCCC(C)O` (centres undefined) + Clc1ccccc1, the viscosity ([1]; 298.15 K, 101 kPa, x2 = 0.0637) is reported as 5.573 ± 0.03 mPa·s, the viscosity ([1]; 298.15 K, 101 kPa, x2 = 0.1236) is reported as 4.736 ± 0.026 mPa·s and the viscosity ([1]; 298.15 K, 101 kPa, x2 = 0.1894) is reported as 3.906 ± 0.022 mPa·s. It also gave a viscosity ([1]; 298.15 K, 101 kPa, x2 = 0.2474) of 3.319 ± 0.019 mPa·s, a viscosity ([1]; 298.15 K, 101 kPa, x2 = 0.3131) of 2.772 ± 0.016 mPa·s and a viscosity ([1]; 298.15 K, 101 kPa, x2 = 0.374) of 2.378 ± 0.014 mPa·s. For the same compound, the viscosity ([1]; 298.15 K, 101 kPa, x2 = 0.4525) was 1.947 ± 0.012 mPa·s, the viscosity ([1]; 298.15 K, 101 kPa, x2 = 0.5014) was 1.737 ± 0.011 mPa·s and the viscosity ([1]; 298.15 K, 101 kPa, x2 = 0.5867) was 1.452 ± 0.01 mPa·s. The viscosity ([1]; 298.15 K, 101 kPa, x2 = 0.6813) was 1.203 ± 0.009 mPa·s, the viscosity ([1]; 298.15 K, 101 kPa, x2 = 0.7429) was 1.085 ± 0.009 mPa·s and the viscosity ([1]; 298.15 K, 101 kPa, x2 = 0.8098) was 0.968 ± 0.008 mPa·s. The viscosity ([1]; 298.15 K, 101 kPa, x2 = 0.8776) was 0.872 ± 0.008 mPa·s, the viscosity ([1]; 298.15 K, 101 kPa, x2 = 0.9446) was 0.803 ± 0.008 mPa·s and the viscosity ([1]; 303.15 K, 101 kPa, x2 = 0.0637) was 4.507 ± 0.025 mPa·s. For the same compound, the viscosity ([1]; 303.15 K, 101 kPa, x2 = 0.1236) was 3.906 ± 0.022 mPa·s, the viscosity ([1]; 303.15 K, 101 kPa, x2 = 0.1894) was 3.291 ± 0.019 mPa·s and the viscosity ([1]; 303.15 K, 101 kPa, x2 = 0.2474) was 2.818 ± 0.016 mPa·s. For the same compound, the viscosity ([1]; 303.15 K, 101 kPa, x2 = 0.3131) was 2.369 ± 0.014 mPa·s, the viscosity ([1]; 303.15 K, 101 kPa, x2 = 0.374) was 1.981 ± 0.012 mPa·s and the viscosity ([1]; 303.15 K, 101 kPa, x2 = 0.4525) was 1.641 ± 0.011 mPa·s. It also gave a viscosity ([1]; 303.15 K, 101 kPa, x2 = 0.5014) of 1.467 ± 0.01 mPa·s, a viscosity ([1]; 303.15 K, 101 kPa, x2 = 0.5867) of 1.238 ± 0.009 mPa·s and a viscosity ([1]; 303.15 K, 101 kPa, x2 = 0.6813) of 1.08 ± 0.009 mPa·s. It also gave a viscosity ([1]; 303.15 K, 101 kPa, x2 = 0.7429) of 1 ± 0.008 mPa·s, a viscosity ([1]; 303.15 K, 101 kPa, x2 = 0.8098) of 0.929 ± 0.008 mPa·s and a viscosity ([1]; 303.15 K, 101 kPa, x2 = 0.8776) of 0.867 ± 0.008 mPa·s. The viscosity ([1]; 303.15 K, 101 kPa, x2 = 0.9446) was 0.786 ± 0.008 mPa·s.

Work on `C[N+](C)(CCO)CCO.[Cl-]` + NC(N)=O yielded a viscosity ([1]; 293.15 K, 100 kPa, x1 = 0.5) of 3865 ± 230 mPa·s, a viscosity ([1]; 298.15 K, 100 kPa, x1 = 0.5) of 2440 ± 130 mPa·s and a viscosity ([1]; 303.15 K, 100 kPa, x1 = 0.5) of 1596 ± 76 mPa·s. It also gave a viscosity ([1]; 308.15 K, 100 kPa, x1 = 0.5) of 1065 ± 46 mPa·s, a viscosity ([1]; 313.15 K, 100 kPa, x1 = 0.5) of 724 ± 28 mPa·s and a viscosity ([1]; 318.15 K, 100 kPa, x1 = 0.5) of 514 ± 18 mPa·s. It also gave a viscosity ([1]; 323.15 K, 100 kPa, x1 = 0.5) of 368 ± 12 mPa·s.

For `CC(=O)[O-].C[N+](C)(C)CCO` + O, the viscosity ([1]; 298 K, 101.33 kPa, x2 = 0.8) was 30.5 mPa·s.

In the case of `CC(O)CCO` (centres undefined) + O, the viscosity ([1]; 298.15 K, 101 kPa, x1 = 0.0996) is reported as 3.694 ± 0.028 mPa·s, the viscosity ([1]; 298.15 K, 101 kPa, x1 = 0.1982) is reported as 8.539 ± 0.06 mPa·s and the viscosity ([1]; 298.15 K, 101 kPa, x1 = 0.2991) is reported as 15.27 ± 0.1 mPa·s. For the same compound, the viscosity ([1]; 298.15 K, 101 kPa, x1 = 0.4036) was 23.16 ± 0.15 mPa·s, the viscosity ([1]; 298.15 K, 101 kPa, x1 = 0.4489) was 28.48 ± 0.19 mPa·s and the viscosity ([1]; 298.15 K, 101 kPa, x1 = 0.6118) was 47.9 ± 0.31 mPa·s. For the same compound, the viscosity ([1]; 298.15 K, 101 kPa, x1 = 0.6989) was 56.8 ± 0.31 mPa·s, the viscosity ([1]; 298.15 K, 101 kPa, x1 = 0.7986) was 67.85 ± 0.5 mPa·s and the viscosity ([1]; 298.15 K, 101 kPa, x1 = 0.8971) was 82.56 ± 0.83 mPa·s. For the same compound, the viscosity ([1]; 303.15 K, 101 kPa, x1 = 0.0996) was 3.073 ± 0.024 mPa·s, the viscosity ([1]; 303.15 K, 101 kPa, x1 = 0.1982) was 6.787 ± 0.048 mPa·s and the viscosity ([1]; 303.15 K, 101 kPa, x1 = 0.2991) was 11.94 ± 0.08 mPa·s. It also gave a viscosity ([1]; 303.15 K, 101 kPa, x1 = 0.4036) of 18.3 ± 0.12 mPa·s, a viscosity ([1]; 303.15 K, 101 kPa, x1 = 0.4489) of 23.28 ± 0.15 mPa·s and a viscosity ([1]; 303.15 K, 101 kPa, x1 = 0.6118) of 35.02 ± 0.23 mPa·s. It also gave a viscosity ([1]; 303.15 K, 101 kPa, x1 = 0.6989) of 42.27 ± 0.27 mPa·s, a viscosity ([1]; 303.15 K, 101 kPa, x1 = 0.7986) of 51.92 ± 0.26 mPa·s and a viscosity ([1]; 303.15 K, 101 kPa, x1 = 0.8971) of 62.2 ± 0.39 mPa·s. It also gave a viscosity ([1]; 308.15 K, 101 kPa, x1 = 0.0996) of 2.633 ± 0.022 mPa·s, a viscosity ([1]; 308.15 K, 101 kPa, x1 = 0.1982) of 5.587 ± 0.041 mPa·s and a viscosity ([1]; 308.15 K, 101 kPa, x1 = 0.2991) of 9.627 ± 0.066 mPa·s. For the same compound, the viscosity ([1]; 308.15 K, 101 kPa, x1 = 0.4036) was 14.52 ± 0.1 mPa·s, the viscosity ([1]; 308.15 K, 101 kPa, x1 = 0.4489) was 17.57 ± 0.12 mPa·s and the viscosity ([1]; 308.15 K, 101 kPa, x1 = 0.6118) was 27.68 ± 0.18 mPa·s. For the same compound, the viscosity ([1]; 308.15 K, 101 kPa, x1 = 0.6989) was 33.27 ± 0.22 mPa·s, the viscosity ([1]; 308.15 K, 101 kPa, x1 = 0.7986) was 38.78 ± 0.25 mPa·s and the viscosity ([1]; 308.15 K, 101 kPa, x1 = 0.8971) was 46.95 ± 0.3 mPa·s. The viscosity ([1]; 313.15 K, 101 kPa, x1 = 0.0996) was 2.297 ± 0.019 mPa·s, the viscosity ([1]; 313.15 K, 101 kPa, x1 = 0.1982) was 4.737 ± 0.035 mPa·s and the viscosity ([1]; 313.15 K, 101 kPa, x1 = 0.2991) was 8.017 ± 0.056 mPa·s. The viscosity ([1]; 313.15 K, 101 kPa, x1 = 0.4036) was 11.63 ± 0.08 mPa·s, the viscosity ([1]; 313.15 K, 101 kPa, x1 = 0.4489) was 13.92 ± 0.09 mPa·s and the viscosity ([1]; 313.15 K, 101 kPa, x1 = 0.6118) was 21.38 ± 0.14 mPa·s. The viscosity ([1]; 313.15 K, 101 kPa, x1 = 0.6989) was 25.42 ± 0.17 mPa·s, the viscosity ([1]; 313.15 K, 101 kPa, x1 = 0.7986) was 29.8 ± 0.19 mPa·s and the viscosity ([1]; 313.15 K, 101 kPa, x1 = 0.8971) was 35.92 ± 0.23 mPa·s. The viscosity ([1]; 318.15 K, 101 kPa, x1 = 0.0996) was 2.019 ± 0.018 mPa·s, the viscosity ([1]; 318.15 K, 101 kPa, x1 = 0.1982) was 4.034 ± 0.03 mPa·s and the viscosity ([1]; 318.15 K, 101 kPa, x1 = 0.2991) was 6.671 ± 0.047 mPa·s. The viscosity ([1]; 318.15 K, 101 kPa, x1 = 0.4036) was 9.592 ± 0.066 mPa·s, the viscosity ([1]; 318.15 K, 101 kPa, x1 = 0.4489) was 11.4 ± 0.08 mPa·s and the viscosity ([1]; 318.15 K, 101 kPa, x1 = 0.6118) was 17.22 ± 0.11 mPa·s. The viscosity ([1]; 318.15 K, 101 kPa, x1 = 0.6989) was 20.24 ± 0.13 mPa·s, the viscosity ([1]; 318.15 K, 101 kPa, x1 = 0.7986) was 23.4 ± 0.15 mPa·s and the viscosity ([1]; 318.15 K, 101 kPa, x1 = 0.8971) was 27.87 ± 0.18 mPa·s. The viscosity ([1]; 318.15 K, 101.3 kPa, x2 = 0.045) was 28.95 ± 0.14 mPa·s and the viscosity ([1]; 318.15 K, 101.3 kPa, x2 = 0.2499) was 20.85 ± 0.11 mPa·s.
